Assays:
Format in all cases: cell-based
Hep-2 cells = test: Cytotoxicity test (cell morphology, trypan blue viability): non-toxic dose on Hep-2 cells; conditions: Hep-2 cell line, 72 h
Description: (§1) It was carried out in accordance with the methods that were reported. In 1 mL of ethyl alcohol, 100 mg of sample was dissolved. A sample of 24 μL of 100× antibiotic–antimycotic mixture was added to 1 mL of sample to decontaminate it. Then, bi-fold dilutions were done to 100 μL of the original dissolved sample, and 100 μL of each dilution was inoculated in Hep-2, BGM, MA104, and CaCo-2 cell lines (obtained from the Holding Company for Biological Products & Vaccines VACSERA, Giza, Egypt) previously cultured in 96 multi well plates (Greiner-Bio one, Frickenhausen, Germany) to estimate the sample’s non-toxic dose. Inverted light microscope cell morphology and trypan blue dye exclusion cell viability tests were used for cytotoxicity assay.
(§2) The Hep-2, BGM, MA104, and CaCo-2 cell cultures were each seeded at a concentration of 2 × 10^5 cells/mL and grown individually in 96-well tissue culture plates (Greiner-Bio one, Frickenhausen, Germany). After an incubation period of 24 h at 37 °C in an atmosphere containing 5% (v/v) CO2, cell monolayers were confluent. At this point, the media was withdrawn from each well and replaced with 100 μL of bi-fold dilutions of the sample examined that were prepared in Dulbecco’s Modified Eagle Medium (DMEM) (GIBCO BRL, Darmstadt, Germany). For the purpose of cell controls, 100 μL of DMEM containing no samples was added. All the cultures were kept in an atmosphere with 5% (v/v) CO2 that was humidified and incubated at 37 °C for a total of 72 h. […] Morphology shifts were observed and scored.
(§3) Trypan blue dye was excluded from the experiment. […]. In 12-well tissue culture plates, Hep-2, BGM, MA104, and CaCo-2 cells (2 × 10^5 cells/mL) were cultivated (Greiner-Bio one, Frickenhausen, Germany). Following an incubation period of 24 h, 100 μL of tested sample dilutions, also known as bi-fold dilutions, were added to each well, and the results were examined in the same manner as described previously. After 72 h, the medium was removed, the cells were trypsinized, and an equal amount of an aqueous solution containing 0.4% (w/v) trypan blue dye was added. Counting the number of viable cells required phase contrast microscopes.

BGM cells = test: Cytotoxicity test (cell morphology, trypan blue viability): non-toxic dose on BGM cells; conditions: BGM cell line, 72 h
Description: as §1, §2, §3

MA104 cells = test: Cytotoxicity test (cell morphology, trypan blue viability): non-toxic dose on MA104 cells; conditions: MA104 cell line, 72 h
Description: as §1, §2, §3

[1] = system: human rotavirus Wa strain; test: Rotavirus titers by plaque assay after treatment with non-toxic doses; conditions: virus 1 × 10^7 PFU/mL, Mean ± SD of three results
Description: The Rotavirus Wa strain, at a concentration of 1 × 10^7 PFU/mL, was mixed with non-toxic dilutions in a volume of 100 μL. At a temperature of 37 °C and 10 μg/mL of trypsin, the rotavirus stocks became infectious after 30 min. The mixture was incubated for half an hour at 37 °C. The Hep 2, BGM, and MA104 cell lines were seeded into the wells of 12 multi-well plates and then injected with 100 μL (10-fold) dilutions of the treated and untreated rotavirus Wa strain after an hour of adsorption at 37 °C in an atmosphere containing 5% CO2-water vapor without shaking. The plates were bounced at regular intervals to prevent the cells from drying out. Following the adsorption step, 1 mL of a 2× media consisting of Dulbecco’s Modified Eagle Medium, Gibco-BRL (DMEM), and 1% agarose were added to each well. The mixture of medium and agarose was given an additional 0.5 μg/mL of trypsin so that it could test for the rotavirus Wa strain. The plates were kept in an incubator with an environment containing 5% CO2 and water vapor at 37 °C. After being fixed with formalin and stained with crystal violet at a concentration of 0.4%, the plaques were counted. After that, the PFU/mL viral titers were determined.

SMILES	Non-Toxic Doses (Hep-2 cells)	Non-Toxic Doses (BGM cells)	Non-Toxic Doses (MA104 cells)	% Reduction of Rotavirus Wa strain [1]
Cn1c(=S)[nH]c2cc3ccccc3cc2c1=O [Compound 1]	65 µg/mL	60 µg/mL	65 µg/mL	–
CCn1c(=S)[nH]c2cc3ccccc3cc2c1=O [Compound 2]	60 µg/mL	60 µg/mL	60 µg/mL	–
O=c1c2cc3ccccc3cc2[nH]c(=S)n1Cc1ccccc1 [Compound 3]	70 µg/mL	60 µg/mL	75 µg/mL	–
COc1cccc(CSc2nc3cc4ccccc4cc3c(=O)n2C)c1 [Compound 4]	55 µg/mL	50 µg/mL	55 µg/mL	–
CCn1c(SCc2cccc(OC)c2)nc2cc3ccccc3cc2c1=O [Compound 5]	60 µg/mL	55 µg/mL	55 µg/mL	–
COc1cccc(CSc2nc3cc4ccccc4cc3c(=O)n2Cc2ccccc2)c1 [Compound 6]	65 µg/mL	65 µg/mL	65 µg/mL	20% ± 4%
CCn1c(SCc2ccc(Cl)cc2)nc2cc3ccccc3cc2c1=O [Compound 7]	60 µg/mL	60 µg/mL	60 µg/mL	–
O=c1c2cc3ccccc3cc2nc(SCc2ccc(Cl)cc2)n1Cc1ccccc1 [Compound 8]	50 µg/mL	50 µg/mL	50 µg/mL	–
Cn1c(SCc2cccc(C#N)c2)nc2cc3ccccc3cc2c1=O [Compound 9]	70 µg/mL	65 µg/mL	75 µg/mL	–
CCn1c(SCc2ccc(C#N)cc2)nc2cc3ccccc3cc2c1=O [Compound 10]	50 µg/mL	50 µg/mL	55 µg/mL	–
N#Cc1ccc(CSc2nc3cc4ccccc4cc3c(=O)n2Cc2ccccc2)cc1 [Compound 11]	65 µg/mL	65 µg/mL	65 µg/mL	–
CCn1c(SCCCN2C(=O)c3ccccc3C2=O)nc2cc3ccccc3cc2c1=O [Compound 12]	30 µg/mL	25 µg/mL	30 µg/mL	–
O=C1c2ccccc2C(=O)N1CCCSc1nc2cc3ccccc3cc2c(=O)n1Cc1ccccc1 [Compound 13]	45 µg/mL	40 µg/mL	50 µg/mL	20% ± 3%
Cn1c(NN)nc2cc3ccccc3cc2c1=O [Compound 14]	60 µg/mL	55 µg/mL	60 µg/mL	–
CCn1c(NN)nc2cc3ccccc3cc2c1=O [Compound 15]	55 µg/mL	55 µg/mL	55 µg/mL	–
NNc1nc2cc3ccccc3cc2c(=O)n1Cc1ccccc1 [Compound 16]	65 µg/mL	60 µg/mL	60 µg/mL	–
